Structures can show the parent of a compound that is named as a salt.
What was measured:
[1] = powder; cited from earlier work
[2] = test system: patients with agitation associated with Alzheimer's disease; assay: Phase 2/3 randomized, double-blind, controlled clinical trial in agitation associated with Alzheimer's disease; assay type: in vivo, human
Protocol: A Phase 2/3 randomized, double-blind, controlled, multicenter, U.S. clinical trial was conducted to evaluate the efficacy and safety of DM/BU in patients with agitation associated with Alzheimer's disease. A total of 366 patients with a diagnosis of probable Alzheimer's disease and clinically meaningful agitation associated with their disease were randomized, initially in a 1:1:1 ratio, to receive DM/BU (dextromethorphan/bupropion, dose escalated from 30 mg/105 mg once daily in the first week, to 30 mg/105 mg twice daily in the second week, to 45 mg/105 mg twice daily thereafter), bupropion (dose escalated from 105 mg once daily in the first week to 105 mg twice daily thereafter), or matching placebo, for 5 weeks. An independent data monitoring committee performed an interim futility analysis and recommended no further randomization to the bupropion arm. Subsequently, patients were randomized in a 1:1 ratio to receive DM/BU or placebo. Total patients randomized were 159, 49, and 158 to the DM/BU, bupropion, and placebo arms, respectively. The mean Cohen-Mansfield Agitation Inventory (CMAI) total scores at baseline were 60.8, 66.1, and 59.3, respectively for the DM/BU, bupropion, and placebo groups. The minimum score on the CMAI is 29, corresponding to the total absence of symptoms, with higher scores corresponding to greater agitation. The primary endpoint of the study was the change from baseline in the CMAI total score at Week 5. P-values were calculated based on least square mean estimates.
Inclusion criteria included male or female […], diagnosis of probable Alzheimer's disease, according to the 2011 NIA-AA criteria, diagnosis of agitation, according to the IPA provisional definition of agitation, MMSE score between 10 and 24, an NPI-AA score ≥4, and community dwelling. Exclusion criterial included dementia of non-Alzheimer's type and current use of a selective serotonin reuptake inhibitor and/or a serotonin and norepinephrine inhibitor (SSRI/SNRI).

SMILES | solubility in water [1] | mean reduction from baseline in CMAI total score ([2]; Week 5, primary endpoint, placebo 11.5, p=0.010) [points] | Diarrhea ([2]; both, human, in vivo, 5 weeks) | Discontinuation due to AEs ([2]; both, human, in vivo, 5 weeks) | Dizziness ([2]; both, human, in vivo, 5 weeks) | Falls ([2]; both, human, in vivo, 5 weeks) | Fatigue ([2]; both, human, in vivo, 5 weeks) | Headache ([2]; both, human, in vivo, 5 weeks) | Insomnia ([2]; both, human, in vivo, 5 weeks) | Serious AEs ([2]; both, human, in vivo, 5 weeks) | Somnolence ([2]; both, human, in vivo, 5 weeks) | Subjects with any TEAE ([2]; both, human, in vivo, 5 weeks) | diarrhea, adverse event rate ([2]; both, human, in vivo, 5 weeks) [%] | dizziness, adverse event rate ([2]; both, human, in vivo, 5 weeks) [%] | rate of discontinuation due to adverse events ([2]; both, human, in vivo, 5 weeks) [%] | serious adverse events, patients ([2]; both, human, in vivo, 5 weeks) [%] | somnolence, adverse event rate ([2]; both, human, in vivo, 5 weeks) [%] | deaths ([2]; one in the placebo arm)
CC(NC(C)(C)C)C(=O)c1cccc(Cl)c1.Cl (racemic) [Bupropion hydrochloride, (±)-1-(3-chlorophenyl)-2-[(1,1-dimethylethyl)amino]-1-propanone hydrochloride] | highly soluble in water | – | – | – | – | – | – | – | – | – | – | – | – | – | – | – | – | –
CC(NC(C)(C)C)C(=O)c1cccc(Cl)c1 (stereo not shown) [Bupropion, bupropion] | – | 10.0 | 3 (6.1%) number of subjects (% of subjects) | 1 (2.0%) number of subjects (% of subjects) | 5 (10.2%) number of subjects (% of subjects) | 7 (14.3%) number of subjects (% of subjects) | 5 (10.2%) number of subjects (% of subjects) | 3 (6.1%) number of subjects (% of subjects) | 3 (6.1%) number of subjects (% of subjects) | 4 (8.2%) number of subjects (% of subjects) | 2 (4.1%) number of subjects (% of subjects) | 30 (61.2%) number of subjects (% of subjects) | 6.1 | 10.2 | 2.0 | 8.2 | 4.1 | one
COc1ccc2c(c1)[C@]13CCCC[C@@H]1[C@H](C2)N(C)CC3 [Dextromethorphan hydrobromide, morphinan, 3-methoxy-17-methyl-, (9α, 13α, 14α), hydrobromide monohydrate] | sparingly soluble in water | – | – | – | – | – | – | – | – | – | – | – | – | – | – | – | – | –
